Source: ChEMBL document CHEMBL1201862, “PubChem BioAssay data set” (2004)
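Dose response: 5 concentrations. Exposure: 48 h. Format: 96-well plates. Endpoint: linear interpolation; highest concentration if not reached. GI50 = concentration required for 50% inhibition of growth.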 The source made the active and inactive calls. Rule as the data show it: active = GI50 up to about 1.1 µM and inactive = higher.

Key:
Experiment in all cases: NCI anticancer screen, dose series, 48 h
[1] = system: 786-0
[2] = system: A549
[3] = system: ACHN
[4] = system: COLO 205
[5] = system: HCC 2998
[6] = system: HL-60
[7] = system: HT-29
[8] = system: K562
[9] = system: M14
[10] = system: MOLT-4
[11] = system: RPMI-8226
[12] = system: SF-268
[13] = system: SF-295
[14] = system: SF-539
[15] = system: SK-MEL-28
[16] = system: SK-OV-3
[17] = system: TK-10
[18] = system: UO-31
[19] = system: KM12
[20] = system: SR

Measured: GI50

COC(=O)N1C=Cc2c(c(C)c3c([nH]c4ccccc43)c2C)C1C (stereo not drawn)
inactive: [1] 13.2 µM | [2] 18 µM | [3] > 10 µM | [4] 18.7 µM | [5] 16.8 µM | [6] 19.2 µM | [7] 11.3 µM | [8] 6.19 µM | [9] 29.6 µM | [10] 5.97 µM | [11] 7.62 µM | [12] 18.2 µM | [13] 13.7 µM | [14] 17.1 µM | [15] 15.5 µM | [16] 27.4 µM | [17] 19.6 µM | [18] 18.5 µM

NC(CCCCNCc1ccccc1)C(=O)O (stereo not drawn)
inactive: [1] > 100 µM | [2] > 100 µM | [3] > 100 µM | [4] > 100 µM | [5] > 100 µM | [6] > 100 µM | [7] > 100 µM | [8] > 100 µM | [19] > 100 µM | [9] > 100 µM | [10] > 100 µM | [11] > 100 µM | [12] > 100 µM | [13] > 100 µM | [14] > 100 µM | [15] > 100 µM | [16] > 100 µM | [17] > 100 µM | [18] > 100 µM

COC(=O)c1s/c(=N\C(=S)N(C)C)n(-c2ccccc2)c1C(=O)OC
inactive: [1] > 100 µM | [2] > 100 µM | [3] > 100 µM | [4] > 100 µM | [5] > 100 µM | [6] 32.6 µM | [7] 57 µM | [8] > 100 µM | [19] > 100 µM | [9] > 100 µM | [10] 66.8 µM | [11] 73.5 µM | [12] > 100 µM | [13] > 100 µM | [14] > 100 µM | [15] > 100 µM | [16] > 100 µM | [17] > 100 µM | [18] > 100 µM

C/C(=N/NC(=O)c1ccccc1S(N)(=O)=O)C(CN1CCCCC1)C(C1=C(O)C2C=CC=CC2OC1=O)c1ccccc1 (stereo not drawn)
inactive: [1] > 100 µM | [2] 91.2 µM | [3] 61.7 µM | [4] 18.6 µM | [6] 23.4 µM | [7] 83.9 µM | [8] 43.6 µM | [19] 97.3 µM | [9] 78.3 µM | [11] 25.5 µM | [12] 58.5 µM | [13] 57.8 µM | [14] > 100 µM | [16] > 100 µM | [20] 23.7 µM | [17] > 100 µM | [18] 74.5 µM

Cn1c2ccccc2c2ccc3c(c21)C(=O)C(c1ccccc1)=CC3=O
inactive: [1] 17.1 µM | [2] 34.4 µM | [3] 54.2 µM | [4] 31.1 µM | [5] 24.5 µM | [6] 14.4 µM | [7] 45.4 µM | [8] 4.75 µM | [19] 32.2 µM | [9] 39.4 µM | [10] 14.8 µM | [11] 23.6 µM | [12] 36 µM | [13] 61.4 µM | [14] 24.2 µM | [15] 24 µM | [16] 81.3 µM | [17] 43.8 µM | [18] 31.1 µM

O=C(NNc1ccc([N+](=O)[O-])cc1)C1OC(CO)C(O)C1O (stereo not drawn)
inactive: [1] 26.4 µM | [2] > 100 µM | [3] > 100 µM | [4] > 100 µM | [5] > 100 µM | [6] 58.9 µM | [7] 59.8 µM | [8] 67 µM | [19] 81.8 µM | [9] > 100 µM | [10] > 100 µM | [11] 30.5 µM | [12] > 100 µM | [13] > 100 µM | [14] > 100 µM | [15] > 100 µM | [16] > 100 µM | [17] > 100 µM | [18] > 100 µM

COc1ccc2c(c1)[n+]([O-])c(-c1cccc(Cl)c1)c(N)[n+]2[O-]
inactive: [1] 95.1 µM | [2] 32.7 µM | [3] 57.3 µM | [4] 16.6 µM | [6] 29 µM | [7] 41.5 µM | [8] 45.1 µM | [19] 48.6 µM | [10] 46 µM | [12] 33.8 µM | [13] 97.1 µM | [14] 31.3 µM | [15] 23.6 µM | [16] 95.9 µM | [20] 43.6 µM | [18] 89.3 µM

CC(C)C(=O)Nc1cc(C(F)(F)F)ccc1[N+](=O)[O-]
inactive: [1] > 100 µM | [2] > 100 µM | [3] > 100 µM | [4] > 100 µM | [5] > 100 µM | [6] 94 µM | [7] > 100 µM | [8] 50.9 µM | [19] > 100 µM | [9] > 100 µM | [10] > 100 µM | [11] 72.8 µM | [12] > 100 µM | [13] > 100 µM | [14] > 100 µM | [15] > 100 µM | [16] > 100 µM | [17] > 100 µM | [18] > 100 µM

Cc1cc(C)c(S(=O)(=O)N(CCCCCCN)OCCCN)c(C)c1
inactive: [1] 16 µM | [2] 70 µM | [3] 17.2 µM | [4] 17.3 µM | [5] 16.6 µM | [6] 12.3 µM | [7] 15.1 µM | [8] 26.4 µM | [19] 15.1 µM | [9] 20.9 µM | [10] 15.3 µM | [11] 31.6 µM | [12] 16.5 µM | [13] 18.5 µM | [14] 18.2 µM | [15] 18.1 µM | [16] 18.4 µM | [17] 15.4 µM | [18] 19.5 µM

CCOC(=O)C(NC(=O)c1cccc(Cl)c1)(Nc1ccc(S(=O)(=O)Nc2cc(C)on2)cc1)C(F)(F)F (stereo not drawn)
inactive: [1] > 100 µM | [2] > 100 µM | [3] > 100 µM | [4] > 100 µM | [5] > 100 µM | [6] > 100 µM | [7] > 100 µM | [8] > 100 µM | [19] > 100 µM | [9] > 100 µM | [10] > 100 µM | [11] > 100 µM | [12] > 100 µM | [13] 14.4 µM | [14] > 100 µM | [15] > 100 µM | [16] > 100 µM | [17] > 100 µM | [18] > 100 µM

Cc1c(N2C(=O)/C(=C/c3ccc(Cl)cc3)N=C2c2ccccc2)c(=O)n(-c2ccccc2)n1C
inactive: [1] 46.8 µM | [2] 28.8 µM | [3] 24.8 µM | [4] 16 µM | [6] 27.4 µM | [7] 26.6 µM | [8] 36.6 µM | [19] 26.5 µM | [9] 36.8 µM | [10] 21.2 µM | [11] 17.8 µM | [12] 30.8 µM | [13] 35.7 µM | [14] 28.5 µM | [16] 36.5 µM | [20] 30.5 µM | [17] 20.5 µM | [18] 26.2 µM

CCCCCCCCCCCCOCCOCCOCCOCCOCCOCC(=O)NC(Cc1ccccc1)C(=O)Oc1ccc([N+](=O)[O-])cc1 (stereo not drawn)
inactive: [1] 34.9 µM | [2] 43 µM | [3] 27.2 µM | [4] 15.8 µM | [6] 21.9 µM | [7] 33.4 µM | [8] 41.7 µM | [19] 40.1 µM | [9] 31.5 µM | [10] 23.2 µM | [11] 23.2 µM | [12] 50.9 µM | [13] 39.1 µM | [14] 36.4 µM | [16] 64.9 µM | [20] 23.3 µM | [17] 38.3 µM | [18] 26 µM

CN1c2ccccc2N(C(=O)c2ccc([N+](=O)[O-])cc2)C(CC(=O)O)c2cccn21 (stereo not drawn)
inactive: [1] > 100 µM | [2] > 100 µM | [3] > 100 µM | [4] > 100 µM | [5] > 100 µM | [6] > 100 µM | [7] > 100 µM | [8] > 100 µM | [19] > 100 µM | [9] > 100 µM | [10] > 100 µM | [11] > 100 µM | [12] > 100 µM | [13] > 100 µM | [14] > 100 µM | [15] > 100 µM | [16] > 100 µM | [17] > 100 µM | [18] > 100 µM

COC(C(O)c1ccc2c(c1)OCO2)P(=O)(c1ccccc1)c1ccccc1 (stereo not drawn)
inactive: [1] > 100 µM | [3] > 100 µM | [6] > 100 µM | [7] > 100 µM | [8] 60.3 µM | [19] > 100 µM | [9] > 100 µM | [10] > 100 µM | [12] > 100 µM | [13] > 10 µM | [14] > 100 µM | [15] > 100 µM | [16] > 10 µM | [20] > 100 µM | [17] > 100 µM | [18] > 100 µM

COc1ccc(CC2(O)C3CC4CCC2C4C3)cc1 (stereo not drawn)
inactive: [1] > 100 µM | [2] 79.4 µM | [3] > 100 µM | [4] 74.3 µM | [6] 51.1 µM | [7] 58.1 µM | [8] 49.1 µM | [19] > 100 µM | [9] > 100 µM | [10] 45 µM | [11] > 100 µM | [12] > 100 µM | [13] 42.6 µM | [15] > 100 µM | [16] > 100 µM | [20] 58.7 µM | [17] 69.3 µM | [18] 49.7 µM
